ChEMBL document CHEMBL1146649, “New highly active taxoids from 9 beta-dihydrobaccatin-9,10-acetals. Part 5” (2004)
Converted amounts (≈) assume the structure as drawn.

Experiments:
Mus musculus [1] = test: Maximum rate of body weight loss after peroral administration of 7.9 mg/kg of compound in mice; type: functional; conditions: route oral
Mus musculus [2] = test: Number of mice died at 11.9 mg/kg of peroral dose, among the total 6 mice tested; type: functional; conditions: route oral
Mus musculus [3] = test: Maximum rate of body weight loss after peroral administration of 17.8 mg/kg of compound in mice; type: functional; conditions: route oral
Mus musculus [4] = test: Number of mice died at 26.7 mg/kg of intravenous dose of compound among the total 6 mice tested; type: functional
Mus musculus [5] = test: Number of mice died at 17.8 mg/kg of peroral dose among the total 6 mice tested; type: functional; conditions: route oral
Mus musculus [6] = test: Maximum rate of body weight loss after intravenous administration of 17.8 mg/kg of compound in mice; type: functional
Mus musculus [7] = test: Antitumor activity of 26.7 mg/kg of perorally administered compound against B16 melanoma BL6 cells implanted into mice, value reported is percent compared to control; type: functional; conditions: route oral
PC-6 [8] = test: Concentration required to inhibit human PC-6 cell line growth by 50% at 72 hr continuous exposure; type: functional; conditions: PC-6, 72 h
Mus musculus [9] = test: Effective dose of intravenously administered compound against B16 melanoma BL6 cells implanted into mice; range is 11.9-17.8; type: functional; conditions: B16, iv
P388 = test: Concentration required to inhibit mouse P388 cell line growth by 50% at 72 hr continuous exposure; type: functional; conditions: P388, 72 h
Mus musculus [10] = test: Number of mice died at 11.9 mg/kg of intravenous dose, among the total 6 mice tested; type: functional
PC-12 = test: Concentration required to inhibit human PC-12 cell line growth by 50% at 72 hr continuous exposure; type: functional; conditions: PC-12, 72 h
B16 [11] = test: Antitumor activity of 11.9 mg/kg of perorally administered compound against B16 melanoma BL6 cells implanted into mice, value reported is percent compared to control; type: functional, Mus musculus; conditions: route oral
Mus musculus [12] = test: Number of mice died at 7.9 mg/kg of peroral dose of compound among the total 6 mice tested; type: functional; conditions: route oral
Mus musculus [13] = test: Maximum rate of body weight loss after intravenous administration of 11.9 mg/kg of compound in mice; <0 indicates no weight loss; type: functional
Mus musculus [14] = test: Maximum rate of body weight loss after peroral administration of 11.9 mg/kg of compound in mice; <0 indicates no weight loss; type: functional; conditions: route oral
Mus musculus [15] = test: Number of mice died at 26.7 mg/kg of peroral dose of compound among the total 6 mice tested; type: functional; conditions: route oral
Mus musculus [16] = test: Number of mice died at 7.9 mg/kg of intravenous dose of compound among the total 6 mice tested; type: functional
Mus musculus [17] = test: Antitumor activity of 17.8 mg/kg of intravenously administered compound against B16 melanoma BL6 cells implanted into mice, value reported is percent compared to control; type: functional; conditions: route intravenous
Mus musculus [18] = test: Number of mice died at 17.8 mg/kg of intravenous dose among the total 6 mice tested; type: functional
Mus musculus [19] = test: Maximum rate of body weight loss after peroral administration of 26.7 mg/kg of compound in mice; type: functional; conditions: route oral
B16 [20] = test: Antitumor activity of 17.8 mg/kg of perorally administered compound against B16 melanoma BL6 cells implanted into mice, value reported is percent compared to control; type: functional, Mus musculus; conditions: route oral
Mus musculus [21] = test: Antitumor activity of 7.9 mg/kg of intravenously administered compound against B16 melanoma BL6 cells implanted into mice, value reported is percent compared to control; type: functional; conditions: route intravenous
Mus musculus [22] = test: Antitumor activity of 7.9 mg/kg of perorally administered compound against B16 melanoma BL6 cells implanted into mice, value reported is percent compared to control; type: functional; conditions: route oral
B16 [23] = test: Antitumor activity of 11.9 mg/kg of intravenously administered compound against B16 melanoma BL6 cells implanted into mice, value reported is percent compared to control; type: functional, Mus musculus; conditions: route intravenous
PC-6 [24] = test: Concentration required to inhibit human PC-6/VCR29-9 cell line growth by 50% at 72 hr exposure; type: functional; conditions: PC-6, 72 h
Mus musculus [25] = test: Effective dose of perorally administered compound against B16 melanoma BL6 cells implanted into mice; range is 11.9-17.8; type: functional; conditions: B16, po
Mus musculus [26] = test: Maximum rate of body weight loss after intravenous administration of 7.9 mg/kg of compound in mice; type: functional
PC-6 [27] = test: Concentration required to inhibit human PC-6/VP1-1 cell line growth by 50% at 72 hr exposure; type: functional; conditions: PC-6, 72 h

## CC(=O)O[C@@]12CO[C@@H]1CC[C@@]1(C)[C@@H]3O[C@H](CN4CCOCC4)O[C@@H]3C3=C(C)[C@@H](OC(=O)[C@H](O)[C@@H](NC(=O)OC(C)(C)C)c4cccc(F)n4)C[C@@](O)([C@@H](OCc4ccccc4)[C@@H]12)C3(C)C
Mus musculus [1]
  BWLmax: 0.8%
Mus musculus [2]
  Mortality: 0
Mus musculus [3]
  BWLmax: 2.2%
Mus musculus [4]
  Mortality: 6
Mus musculus [5]
  Mortality: 0
Mus musculus [6]
  BWLmax: 11.9%
Mus musculus [7]
  IR: 97.4%
PC-6 [8]
  GI50: 0.29 ng/mL (≈ 0.319 nM)
Mus musculus [9]
  ED50: 17.8 mg/kg
P388
  GI50: 0.2 ng/mL (≈ 0.22 nM)
Mus musculus [10]
  Mortality: 0
PC-12
  GI50: 0.14 ng/mL (≈ 0.154 nM)
B16 [11]
  IR: 65.9%
Mus musculus [12]
  Mortality: 0
Mus musculus [13]
  BWLmax: <0%
Mus musculus [14]
  BWLmax: <0%
Mus musculus [15]
  Mortality: 1
Mus musculus [16]
  Mortality: 0
Mus musculus [17]
  IR: 94.7%
Mus musculus [18]
  Mortality: 0
Mus musculus [19]
  BWLmax: 16.6%
B16 [20]
  IR: 88.5%
Mus musculus [21]
  IR: 28.6%
Mus musculus [22]
  IR: -16.3%
B16 [23]
  IR: 85.7%
PC-6 [24]
  GI50: 0.96 ng/mL (≈ 1.05 nM)
Mus musculus [25]
  ED50: 17.8 mg/kg
Mus musculus [26]
  BWLmax: 0.3%
PC-6 [27]
  GI50: 13.7 ng/mL (≈ 15.1 nM)
